IC50 and Activity data for twelve molecules are collected here from ChEMBL document CHEMBL1150403, “Synthesis of Hsp90 inhibitor dimers as potential antitumor agents” (Bioorg Med Chem, 2008).

What all share (format): functional, cell-based
The subject of assay [1] is MCF7. The experiment in a line: Cytotoxicity against human MCF7 cells after 24 hrs. The following applies: MCF7, 24 h.
Another assay concerns SK-BR-3. Description: Cytotoxicity against human SKBR3 cells after 24 hrs. The following applies: SK-BR-3, 24 h.
The subject of assay [2] is MCF7. The experiment in a line: Induction of Her2 degradation in human MCF7 cells by Western blotting analysis. For orientation: In western blotting, separated proteins are transferred to a membrane and probed.

As a reminder, the IC50 is the concentration that gives 50% inhibition. Low values mean greater potency in that assay, high ones weaker potency in that assay. Take `CO[C@H]1/C=C/C=C(\C)C(=O)NC2=CC(=O)C(NCCCCCCCCCCCCCCCCNC3=C4C[C@@H](C)C[C@H](OC)[C@H](O)[C@@H](C)/C=C(\C)[C@H](OC(N)=O)[C@@H](OC)/C=C/C=C(\C)C(=O)NC(=CC3=O)C4=O)=C(C[C@@H](C)C[C@H](OC)[C@H](O)[C@@H](C)/C=C(\C)[C@@H]1OC(N)=O)C2=O`: the IC50 stood at 0.431 µM with MCF7 [1] and 0.15 µM with SK-BR-3.
Turning to `COc1cc(Cc2nc3c(N)ncnc3n2CCCC#CCNCCCCCCCCCCCCNCC#CCCCn2c(Cc3cc(OC)c(OC)c(OC)c3)nc3c(N)ncnc32)cc(OC)c1OC`, the IC50 stood at 4.68 µM in the assay with MCF7 [1] and 5.73 µM in the assay on SK-BR-3. Moreover, in the assay on MCF7 [2], the Activity entry was “Dose-dependent effect”.
`C#CCCCn1c(Cc2cc(OC)c(OC)c(OC)c2)nc2c(N)ncnc21`: the concentration for half-maximal inhibition (IC50) with MCF7 [1] was determined as 45.9 µM; in the assay on SK-BR-3, 31.8 µM.
In the same order, the values of `COc1cc(Cc2nc3c(N)ncnc3n2CCCC#CCNCCCCCCCCCCCCCCCCCCCCNCC#CCCCn2c(Cc3cc(OC)c(OC)c(OC)c3)nc3c(N)ncnc32)cc(OC)c1OC` are 1.46 µM and 1.31 µM.
With `C[C@@H]1C[C@H]2O[C@@H]2/C=C\C=C\C(=O)Cc2c(Cl)c(O)cc(O)c2C(=O)O1` [RADICICOL], the half-maximal inhibitory concentration (IC50) is 0.0892 µM in the assay on MCF7 [1] and 0.00364 µM in the assay on SK-BR-3.
Take `COc1cc(Cc2nc3c(N)ncnc3n2CCCC#CCO)cc(OC)c1OC`: the 50% inhibitory concentration (IC50) in the assay with MCF7 [1] and in the assay with SK-BR-3 was greater than 100 µM in each case.
With `COc1cc(Cc2nc3c(N)ncnc3n2CCCC#CCNCCCCCCCCNCC#CCCCn2c(Cc3cc(OC)c(OC)c(OC)c3)nc3c(N)ncnc32)cc(OC)c1OC`, the IC50 in the assay with MCF7 [1] came out at 30.6 µM; with SK-BR-3 it was 85.7 µM.
Regarding `CO[C@H]1/C=C/C=C(\C)C(=O)NC2=CC(=O)C(NCCCCNC3=C4C[C@@H](C)C[C@H](OC)[C@H](O)[C@@H](C)/C=C(\C)[C@H](OC(N)=O)[C@@H](OC)/C=C/C=C(\C)C(=O)NC(=CC3=O)C4=O)=C(C[C@@H](C)C[C@H](OC)[C@H](O)[C@@H](C)/C=C(\C)[C@@H]1OC(N)=O)C2=O`, the values for the half-inhibitory concentration (IC50) in the assay on MCF7 [1] and in the assay on SK-BR-3 were 1.11 µM and 0.258 µM, respectively.
For the molecule `COc1cc(Cc2nc3c(N)ncnc3n2CCCC#CCNCCCCCCCCCCCCN)cc(OC)c1OC`, the IC50 with MCF7 [1] stood at 55.1 µM; in the assay with SK-BR-3, 13.1 µM.
Regarding `CO[C@H]1/C=C/C=C(\C)C(=O)NC2=CC(=O)C(NCCCCCCCCCCCCNC3=C4C[C@@H](C)C[C@H](OC)[C@H](O)[C@@H](C)/C=C(\C)[C@H](OC(N)=O)[C@@H](OC)/C=C/C=C(\C)C(=O)NC(=CC3=O)C4=O)=C(C[C@@H](C)C[C@H](OC)[C@H](O)[C@@H](C)/C=C(\C)[C@@H]1OC(N)=O)C2=O`, the IC50 was 0.628 µM with MCF7 [1] and 0.296 µM in the assay with SK-BR-3.
In the case of `COc1cc(Cc2nc3c(N)ncnc3n2CCCC#CCNCCCCCCCCCCCCCCCCNCC#CCCCn2c(Cc3cc(OC)c(OC)c(OC)c3)nc3c(N)ncnc32)cc(OC)c1OC`, the 50% inhibitory concentration (IC50) in the assay on MCF7 [1] was 1.57 µM; in the assay with SK-BR-3, 3.18 µM.
For the molecule `COc1cc(Cc2nc3c(N)ncnc3n2CCCC#CCNCCCCNCC#CCCCn2c(Cc3cc(OC)c(OC)c(OC)c3)nc3c(N)ncnc32)cc(OC)c1OC`, the IC50 with MCF7 [1] and in the assay on SK-BR-3 was greater than 100 µM each time.
